In ChEMBL document CHEMBL5223149, “The Emerging Landscape of Small-Molecule Therapeutics for the Treatment of Huntington's Disease” (J Med Chem, 2022):
Converted amounts (≈) assume the structure as drawn. Each block holds one compound with its values, some of them ahead of it.

Assays:
[1] = Solubility of the compound; type: physicochemical
Huntingtin [2] = target: T1, Huntingtin (Homo sapiens, UniProt P42858); assay: Inhibition of HTT (unknown origin)
Target sequence in this assay (P42858 whole entry): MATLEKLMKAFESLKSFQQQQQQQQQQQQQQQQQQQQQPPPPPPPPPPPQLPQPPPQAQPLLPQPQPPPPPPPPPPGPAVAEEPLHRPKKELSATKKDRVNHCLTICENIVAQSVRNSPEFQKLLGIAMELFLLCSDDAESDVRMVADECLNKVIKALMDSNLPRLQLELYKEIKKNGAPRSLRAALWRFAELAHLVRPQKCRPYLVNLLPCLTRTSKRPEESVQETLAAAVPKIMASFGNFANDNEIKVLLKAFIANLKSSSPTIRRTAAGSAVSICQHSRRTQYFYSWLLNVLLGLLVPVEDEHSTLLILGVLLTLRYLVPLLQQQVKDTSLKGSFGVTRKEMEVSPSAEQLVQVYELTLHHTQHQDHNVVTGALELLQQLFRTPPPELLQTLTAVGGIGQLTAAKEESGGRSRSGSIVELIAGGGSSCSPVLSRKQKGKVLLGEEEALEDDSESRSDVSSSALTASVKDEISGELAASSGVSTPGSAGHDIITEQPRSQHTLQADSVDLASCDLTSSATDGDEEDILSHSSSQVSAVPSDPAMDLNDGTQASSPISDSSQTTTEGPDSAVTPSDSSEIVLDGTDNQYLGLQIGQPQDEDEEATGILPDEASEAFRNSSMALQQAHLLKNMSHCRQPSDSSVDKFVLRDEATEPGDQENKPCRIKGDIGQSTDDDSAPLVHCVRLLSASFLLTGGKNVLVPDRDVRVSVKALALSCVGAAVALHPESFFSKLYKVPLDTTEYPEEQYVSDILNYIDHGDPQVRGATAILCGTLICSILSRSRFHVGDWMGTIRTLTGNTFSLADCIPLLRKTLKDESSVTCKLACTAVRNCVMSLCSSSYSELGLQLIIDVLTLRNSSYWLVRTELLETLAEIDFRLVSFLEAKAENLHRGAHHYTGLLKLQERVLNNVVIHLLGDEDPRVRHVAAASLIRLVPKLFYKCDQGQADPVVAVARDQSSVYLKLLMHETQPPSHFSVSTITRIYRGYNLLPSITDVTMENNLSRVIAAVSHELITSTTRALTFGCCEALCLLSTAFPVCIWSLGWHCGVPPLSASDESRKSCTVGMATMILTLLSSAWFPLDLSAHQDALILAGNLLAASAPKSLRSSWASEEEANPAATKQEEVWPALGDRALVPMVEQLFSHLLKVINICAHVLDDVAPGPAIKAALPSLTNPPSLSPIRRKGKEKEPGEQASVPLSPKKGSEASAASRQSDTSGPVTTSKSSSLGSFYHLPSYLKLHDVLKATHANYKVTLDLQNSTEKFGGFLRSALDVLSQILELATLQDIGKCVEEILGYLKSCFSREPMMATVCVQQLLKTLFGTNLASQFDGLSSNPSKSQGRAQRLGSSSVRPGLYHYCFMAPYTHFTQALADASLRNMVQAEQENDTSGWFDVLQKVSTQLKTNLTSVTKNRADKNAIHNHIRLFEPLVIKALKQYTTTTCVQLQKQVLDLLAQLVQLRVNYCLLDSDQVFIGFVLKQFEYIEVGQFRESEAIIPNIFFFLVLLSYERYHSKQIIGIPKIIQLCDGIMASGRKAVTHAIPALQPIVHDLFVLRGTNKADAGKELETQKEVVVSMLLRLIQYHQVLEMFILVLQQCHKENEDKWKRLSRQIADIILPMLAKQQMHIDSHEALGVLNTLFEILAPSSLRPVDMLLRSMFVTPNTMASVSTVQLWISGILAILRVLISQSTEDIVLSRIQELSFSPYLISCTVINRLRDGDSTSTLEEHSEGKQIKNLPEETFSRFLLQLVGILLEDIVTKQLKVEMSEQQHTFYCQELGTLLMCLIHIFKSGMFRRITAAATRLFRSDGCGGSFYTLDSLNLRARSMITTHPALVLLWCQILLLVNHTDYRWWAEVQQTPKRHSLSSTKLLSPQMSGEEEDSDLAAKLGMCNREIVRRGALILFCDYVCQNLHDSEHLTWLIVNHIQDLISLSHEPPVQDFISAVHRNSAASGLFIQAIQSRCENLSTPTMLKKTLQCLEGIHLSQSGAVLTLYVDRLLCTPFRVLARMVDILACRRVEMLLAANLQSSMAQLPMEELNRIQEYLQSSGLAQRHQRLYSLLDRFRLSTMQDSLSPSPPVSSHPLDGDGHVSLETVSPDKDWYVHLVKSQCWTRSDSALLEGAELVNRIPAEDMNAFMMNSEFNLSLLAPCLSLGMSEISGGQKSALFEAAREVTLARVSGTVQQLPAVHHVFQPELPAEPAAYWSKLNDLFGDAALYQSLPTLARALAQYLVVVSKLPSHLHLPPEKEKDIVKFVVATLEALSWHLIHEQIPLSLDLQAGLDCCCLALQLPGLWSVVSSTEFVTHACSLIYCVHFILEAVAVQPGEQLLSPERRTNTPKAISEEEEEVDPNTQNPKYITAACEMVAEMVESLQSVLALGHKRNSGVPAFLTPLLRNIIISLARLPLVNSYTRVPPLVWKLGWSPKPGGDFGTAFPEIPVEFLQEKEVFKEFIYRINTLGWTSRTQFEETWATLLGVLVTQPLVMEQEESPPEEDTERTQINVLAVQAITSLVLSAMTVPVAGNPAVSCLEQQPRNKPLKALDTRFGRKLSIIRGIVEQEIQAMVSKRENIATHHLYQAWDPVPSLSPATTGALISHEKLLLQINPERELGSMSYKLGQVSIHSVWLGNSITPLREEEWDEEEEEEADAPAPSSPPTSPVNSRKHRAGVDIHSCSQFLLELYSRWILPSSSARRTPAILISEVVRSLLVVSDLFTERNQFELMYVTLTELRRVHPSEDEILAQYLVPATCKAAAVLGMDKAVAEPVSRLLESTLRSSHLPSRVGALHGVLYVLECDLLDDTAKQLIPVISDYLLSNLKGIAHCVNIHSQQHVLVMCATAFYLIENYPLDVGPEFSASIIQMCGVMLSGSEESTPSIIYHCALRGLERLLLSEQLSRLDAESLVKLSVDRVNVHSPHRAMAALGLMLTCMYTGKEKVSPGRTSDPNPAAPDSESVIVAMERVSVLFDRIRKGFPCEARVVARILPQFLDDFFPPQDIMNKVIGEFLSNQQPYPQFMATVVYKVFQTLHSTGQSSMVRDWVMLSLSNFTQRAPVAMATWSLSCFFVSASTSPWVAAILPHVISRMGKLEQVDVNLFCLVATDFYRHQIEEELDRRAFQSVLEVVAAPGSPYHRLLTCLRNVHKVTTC

[3] = target: cAMP and cAMP-inhibited cGMP 3',5'-cyclic phosphodiesterase 10A (Homo sapiens, UniProt Q9Y233); assay: Inhibition of PDE10A (unknown origin)
cAMP and cAMP-inhibited cGMP 3',5'-cyclic phosphodiesterase 10A, sequence (Q9Y233 whole entry): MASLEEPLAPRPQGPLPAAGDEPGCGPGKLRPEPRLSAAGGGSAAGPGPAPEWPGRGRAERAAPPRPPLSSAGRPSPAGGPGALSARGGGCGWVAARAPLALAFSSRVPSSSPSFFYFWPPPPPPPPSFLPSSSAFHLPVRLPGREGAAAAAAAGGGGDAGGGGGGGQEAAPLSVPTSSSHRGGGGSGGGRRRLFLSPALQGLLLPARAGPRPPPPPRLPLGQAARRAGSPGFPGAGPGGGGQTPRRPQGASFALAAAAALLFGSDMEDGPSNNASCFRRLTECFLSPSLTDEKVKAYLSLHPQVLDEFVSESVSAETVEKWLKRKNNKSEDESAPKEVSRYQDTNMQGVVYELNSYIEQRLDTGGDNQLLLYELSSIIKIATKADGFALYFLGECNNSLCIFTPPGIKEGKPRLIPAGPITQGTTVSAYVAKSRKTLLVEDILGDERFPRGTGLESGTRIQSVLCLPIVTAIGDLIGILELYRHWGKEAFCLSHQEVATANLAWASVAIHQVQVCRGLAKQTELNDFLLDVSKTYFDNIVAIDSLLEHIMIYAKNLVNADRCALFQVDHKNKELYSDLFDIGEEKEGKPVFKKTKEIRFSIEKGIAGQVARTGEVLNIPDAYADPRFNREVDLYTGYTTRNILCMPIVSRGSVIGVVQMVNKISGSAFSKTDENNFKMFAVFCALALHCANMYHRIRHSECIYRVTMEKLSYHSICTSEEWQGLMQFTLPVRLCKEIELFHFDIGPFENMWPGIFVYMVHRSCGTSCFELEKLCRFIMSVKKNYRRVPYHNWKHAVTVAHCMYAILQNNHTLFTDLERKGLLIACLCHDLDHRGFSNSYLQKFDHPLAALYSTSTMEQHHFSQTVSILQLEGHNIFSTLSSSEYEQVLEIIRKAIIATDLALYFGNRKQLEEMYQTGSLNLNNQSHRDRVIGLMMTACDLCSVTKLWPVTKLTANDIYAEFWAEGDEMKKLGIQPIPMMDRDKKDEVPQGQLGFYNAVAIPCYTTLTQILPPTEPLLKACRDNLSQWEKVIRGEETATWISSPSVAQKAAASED

[4] = target: Mitogen-activated protein kinase 10 (Homo sapiens, UniProt P53779); assay: Inhibition of JNK3 (unknown origin)
Mitogen-activated protein kinase 10, sequence (P53779 whole entry): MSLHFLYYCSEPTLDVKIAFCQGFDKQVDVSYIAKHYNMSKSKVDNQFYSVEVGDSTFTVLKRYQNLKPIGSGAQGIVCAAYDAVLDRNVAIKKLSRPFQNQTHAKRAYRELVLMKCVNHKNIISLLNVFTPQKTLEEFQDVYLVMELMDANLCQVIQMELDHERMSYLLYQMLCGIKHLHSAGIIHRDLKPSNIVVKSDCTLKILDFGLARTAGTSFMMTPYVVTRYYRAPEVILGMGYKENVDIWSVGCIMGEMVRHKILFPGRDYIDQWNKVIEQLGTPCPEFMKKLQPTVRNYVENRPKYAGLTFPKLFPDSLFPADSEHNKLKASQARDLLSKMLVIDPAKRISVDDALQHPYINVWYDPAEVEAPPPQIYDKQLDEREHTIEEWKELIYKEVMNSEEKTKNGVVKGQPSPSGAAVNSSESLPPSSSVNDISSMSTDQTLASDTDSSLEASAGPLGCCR

[5] = target: Mitogen-activated protein kinase 14 (Homo sapiens, UniProt Q16539); assay: Inhibition of p38alpha (unknown origin)
Mitogen-activated protein kinase 14, sequence (Q16539 whole entry): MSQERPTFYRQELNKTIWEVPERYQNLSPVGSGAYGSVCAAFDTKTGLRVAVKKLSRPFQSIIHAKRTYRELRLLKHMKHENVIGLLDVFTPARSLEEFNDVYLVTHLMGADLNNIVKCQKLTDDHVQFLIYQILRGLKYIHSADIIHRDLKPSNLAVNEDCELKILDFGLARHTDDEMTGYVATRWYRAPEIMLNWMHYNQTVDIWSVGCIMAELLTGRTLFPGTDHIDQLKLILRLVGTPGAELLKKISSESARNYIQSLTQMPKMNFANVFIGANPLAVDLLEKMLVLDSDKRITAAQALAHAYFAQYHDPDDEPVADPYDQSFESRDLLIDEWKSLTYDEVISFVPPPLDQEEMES

[6] = target: BDNF/NT-3 growth factors receptor (Homo sapiens) (UniProt Q16620); assay: Activation of TrkB (unknown origin) relative to control; details: filed as activator
Homo sapiens [7] = species: Homo sapiens; assay: Activation of MAPK (unknown origin) relative to control; details: filed as activator
[8] = tested on: Huntingtin (Homo sapiens), P42858 [UNDEFINED MUTATION]; assay: Inhibition of mutant HTT (unknown origin) at 100 nM relative to control
Huntingtin (Homo sapiens), P42858 [UNDEFINED MUTATION], sequence (P42858 whole entry, looked up, change not shown): as the sequence (P42858 whole entry) above

Histone deacetylase 4 = Histone deacetylase 4 (Homo sapiens, UniProt P56524); assay: Inhibition of HDAC4 (unknown origin)
[9] = target: Kynurenine 3-monooxygenase (Homo sapiens, UniProt O15229); assay: Inhibition of KMO (unknown origin)
Huntingtin [10] = target: T1, Huntingtin; assay: Inhibition of mutant HTT (unknown origin) mediated HD exon 1 protein aggregation
Target sequence in this assay (P42858 whole entry, looked up, change not shown): as the sequence (P42858 whole entry) above

[11] = target: T2, Muscleblind-like protein 1 (Homo sapiens, UniProt Q9NR56); assay: Binding affinity to MBNL1 (unknown origin)
T2 sequence (Q9NR56 whole entry): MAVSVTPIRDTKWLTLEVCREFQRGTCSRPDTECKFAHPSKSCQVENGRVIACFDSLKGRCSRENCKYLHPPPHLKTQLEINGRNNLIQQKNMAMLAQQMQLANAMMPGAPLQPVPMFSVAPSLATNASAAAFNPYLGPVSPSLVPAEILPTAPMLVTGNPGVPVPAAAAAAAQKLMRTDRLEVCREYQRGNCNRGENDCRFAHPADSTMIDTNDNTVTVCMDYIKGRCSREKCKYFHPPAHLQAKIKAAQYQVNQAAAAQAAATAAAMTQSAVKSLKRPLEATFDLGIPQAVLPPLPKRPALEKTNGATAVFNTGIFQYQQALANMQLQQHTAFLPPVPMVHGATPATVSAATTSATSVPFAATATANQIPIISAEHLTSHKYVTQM

[12] = Inhibition of PDI (unknown origin); set-up: species or system Homo sapiens
[13] = target: T3, 1-phosphatidylinositol 4,5-bisphosphate phosphodiesterase gamma-1 (Homo sapiens) (UniProt P19174); assay: Activation of PLCgamma1 (unknown origin) at 1 mM relative to control; details: filed as activator
T3 sequence (whole entry): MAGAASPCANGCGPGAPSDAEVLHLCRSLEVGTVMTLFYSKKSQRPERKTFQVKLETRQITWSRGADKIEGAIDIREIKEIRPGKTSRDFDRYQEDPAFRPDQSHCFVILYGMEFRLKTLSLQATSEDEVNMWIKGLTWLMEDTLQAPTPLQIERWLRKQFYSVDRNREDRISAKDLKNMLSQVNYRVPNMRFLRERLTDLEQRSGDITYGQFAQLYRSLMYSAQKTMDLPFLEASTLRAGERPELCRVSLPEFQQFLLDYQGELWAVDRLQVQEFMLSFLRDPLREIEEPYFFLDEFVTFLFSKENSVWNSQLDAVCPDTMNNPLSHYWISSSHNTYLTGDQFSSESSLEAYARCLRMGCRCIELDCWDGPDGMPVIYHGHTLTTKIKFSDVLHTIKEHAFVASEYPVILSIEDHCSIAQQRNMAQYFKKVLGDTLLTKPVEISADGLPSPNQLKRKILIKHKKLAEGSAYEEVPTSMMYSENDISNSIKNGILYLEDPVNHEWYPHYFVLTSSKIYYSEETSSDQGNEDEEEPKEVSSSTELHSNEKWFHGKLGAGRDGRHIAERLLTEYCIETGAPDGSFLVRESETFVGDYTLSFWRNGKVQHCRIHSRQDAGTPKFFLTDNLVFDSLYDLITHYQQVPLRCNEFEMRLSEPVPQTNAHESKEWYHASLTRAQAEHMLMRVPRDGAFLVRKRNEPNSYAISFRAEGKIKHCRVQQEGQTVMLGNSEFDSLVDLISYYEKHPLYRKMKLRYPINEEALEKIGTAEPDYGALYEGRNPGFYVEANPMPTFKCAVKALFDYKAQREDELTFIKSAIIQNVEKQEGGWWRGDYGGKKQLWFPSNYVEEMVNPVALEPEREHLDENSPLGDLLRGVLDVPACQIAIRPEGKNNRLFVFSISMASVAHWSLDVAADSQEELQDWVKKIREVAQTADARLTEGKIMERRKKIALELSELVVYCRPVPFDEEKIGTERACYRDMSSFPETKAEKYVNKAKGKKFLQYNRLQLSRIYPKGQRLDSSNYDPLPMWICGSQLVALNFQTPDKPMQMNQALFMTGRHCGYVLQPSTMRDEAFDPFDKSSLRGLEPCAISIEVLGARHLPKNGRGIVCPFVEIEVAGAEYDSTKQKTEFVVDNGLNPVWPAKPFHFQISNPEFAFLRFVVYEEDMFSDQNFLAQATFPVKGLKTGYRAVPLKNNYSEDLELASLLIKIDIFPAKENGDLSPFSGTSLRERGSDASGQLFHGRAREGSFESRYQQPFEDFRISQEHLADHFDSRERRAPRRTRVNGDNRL

Homo sapiens [14] = species: Homo sapiens; assay: Activation of TrkB Y816 mutant (unknown origin) at 1 mM relative to control; details: filed as activator
Huntingtin [15] = target: T1, Huntingtin; assay: Inhibition of mutant HTT (unknown origin)
Target sequence in this assay (P42858 whole entry, looked up, change not shown): as the sequence (P42858 whole entry) above

[16] = target: G-protein coupled receptor 52 (Homo sapiens, UniProt Q9Y2T5); assay: Inhibition of GPR52 (unknown origin)

Compound: COc1ccc2c(c1)Cc1cccc(-c3cc(=O)cc(N4CCOCC4)o3)c1S2
solubility [1]: 11 µg/mL (≈ 27 µM)

Compound: Cc1cccc(OCC(=O)Nc2ccc(Nc3ccccc3)cc2)c1
IC50 (Huntingtin [2]): 7500 nM

Compound: Cc1ccc2c(c1)nc(CCc1coc3ccc(I)cc3c1=O)n2-c1ccccc1
IC50 [3]: 17 nM

Compound: O=C1Nc2ccc(Br)cc2/C1=C/c1cc(O)c(O)c(Br)c1
inhibition [8]: 30%

Compound: O=C(O)c1cc(-c2ccc(Cl)c(Cl)c2)ncn1
IC50 [9]: 600 nM

Compound: Cc1cc(O)c(C)c2sc(N)nc12
IC50 (Huntingtin [10]): 40000 nM

Compound: Nc1nc(C(=O)N2N=C3CCCCC3C2(O)C(F)(F)F)cs1 (centres undefined)
IC50 (Huntingtin [2]): 1800 nM

Compound: COc1ccc(C(=O)c2nc3c(c(-c4ccccc4)c2N)c(=O)oc2ccccc23)cc1
Kd [11]: 93 nM

Compound: O=C(O)c1cc(-c2ccc(OC3CC3)c(Cl)c2)ncn1
IC50 [9]: 500 nM

Compound: C[C@@H](N)[C@H]1CC[C@H](C(=O)Nc2ccncc2)CC1 [Y-27632]
IC50 (Huntingtin [2]): 5000 nM

Compound: CN(C)c1nc2ccc(O)cc2s1
IC50 (Huntingtin [10]): 100000 nM

Compound: O=C1C=C2C=C[C@@H]3C[C@@]2(O1)[C@H]1CCCCN31 [SECURININE]
EC50 [12]: 3300 nM

Compound: O=c1cc(-c2ccccc2)oc2c(O)c(O)ccc12
Activity [13]: 400%
Activity (Homo sapiens [14]): 90%

Compound: Nn1cnc2c(c1=O)C1(CCCC1)Cc1ccccc1-2
EC50 (Huntingtin [15]): 4900 nM

Compound: C=C1C(=O)O[C@@H]2C/C=C(\C)CC3C=C(C[C@H](OC(=O)/C(C)=C\C)[C@@H]12)C(=O)O3 (some centres undefined)
IC50 [16]: 12000 nM

Compound: Cc1ccc2c(c1)nc(CCc1coc3ccc(Br)cc3c1=O)n2-c1ccccc1
IC50 [3]: 17 nM

Other lines, results leading:

IC50 [4]: 4.7 nM
IC50 [5]: 7.5 nM
Compound: Nc1ccc(Nc2cc(-c3[nH]cnc3-c3ccc(F)cc3)ccn2)cc1

Activity [6]: 125%
Activity (Homo sapiens [7]): 125%
Compound: CN(C)c1ccc(-c2cc(=O)c3ccc(O)c(O)c3o2)cc1

IC50 (Histone deacetylase 4): 40 nM
Compound: C[C@H]1CCCN1[C@@H](C)NC(=O)c1ccc(-c2noc(C(F)(F)F)n2)cc1

IC50 [4]: 433 nM
IC50 [5]: 24 nM
Compound: Clc1ccc(-c2[nH]ncc2-c2ccncn2)cc1

IC50 [4]: 202 nM
Compound: COCCn1c(SC)nc(-c2ccc(F)cc2)c1-c1ccnc(NC(C)=O)c1

IC50 [4]: 74 nM
IC50 [5]: 29 nM
Compound: O=C1OC2(c3ccc(O)cc3Oc3cc(O)ccc32)c2ccc(NC(=S)Nc3ccc(Nc4cc(-c5[nH]cnc5-c5ccc(F)cc5)ccn4)cc3)cc21

IC50 [4]: 181 nM
Compound: CC(C)C(C)Nc1cc(-c2[nH]c(SCCO)nc2-c2ccc(F)cc2)ccn1 (centres undefined)

Kd [11]: 0.011 nM
Compound: Cc1cc2ccccc2nc1-c1ccccc1F
